Laboratory results published in patent publication US9079859B2, “Synthetic lethal targeting of glucose transport” (AUCKLAND UNISERVICES LIMITED, priority 2011, dated 2015).

How the values were obtained:
Test in all cases: Kinase Profiler
Format in all cases: biochemical
Details in all cases: STF-31 10 μM
PKBα = target: T1, PKBα (Homo sapiens, UniProt P31749)
T1 construct: purchased Millipore Kinase Profiler
Method: (§1) Cell Culture and Reagents. All cells were grown in DMEM+10% FCS. ACHN and ACHN shVHL were a kind gift from George V. Thomas (UCLA). HIF overexpressing clones were described previously (Sutphin et al., Cancer Res, 67:5896-5905 (2007)). Transfection of RNA oligos were performed with DnarmaFECT Reagent 1 (Dharmcon), according to manufacturer's directions. ON-TARGETplus SMART pools against HIF-1 R/ARNT were purchased from Dharmacon. Inducible shRNAmir to GLUT1 was purchased from Open Biosystems. GLUT1 was detected with anti-GLUT1 antibody from NeoMarkers/LabVision/Fisher. For immunofluorescent studies, GLUT1, GLUT2, and GLUT3 antibodies were purchased from R&D. Pyruvate/lactate levels and hexokinase activity were both measured by fluorometric assay (BioVision and Sigma-Aldrich, respectively). ATP levels were measured by bioluminescence assay (ATP Determination Kit from Molecular Probes/Invitrogen). In vitro kinase activities were performed by Millipore Kinase Profiler.

IGF-1R = target: T2, IGF-1R (Homo sapiens, UniProt P08069)
T2 construct: purchased Millipore Kinase Profiler
Method: as §1

IR = target: T3, IR (Homo sapiens, UniProt P06213)
T3 construct: purchased Millipore Kinase Profiler
T3 sequence (P06213 28-1382): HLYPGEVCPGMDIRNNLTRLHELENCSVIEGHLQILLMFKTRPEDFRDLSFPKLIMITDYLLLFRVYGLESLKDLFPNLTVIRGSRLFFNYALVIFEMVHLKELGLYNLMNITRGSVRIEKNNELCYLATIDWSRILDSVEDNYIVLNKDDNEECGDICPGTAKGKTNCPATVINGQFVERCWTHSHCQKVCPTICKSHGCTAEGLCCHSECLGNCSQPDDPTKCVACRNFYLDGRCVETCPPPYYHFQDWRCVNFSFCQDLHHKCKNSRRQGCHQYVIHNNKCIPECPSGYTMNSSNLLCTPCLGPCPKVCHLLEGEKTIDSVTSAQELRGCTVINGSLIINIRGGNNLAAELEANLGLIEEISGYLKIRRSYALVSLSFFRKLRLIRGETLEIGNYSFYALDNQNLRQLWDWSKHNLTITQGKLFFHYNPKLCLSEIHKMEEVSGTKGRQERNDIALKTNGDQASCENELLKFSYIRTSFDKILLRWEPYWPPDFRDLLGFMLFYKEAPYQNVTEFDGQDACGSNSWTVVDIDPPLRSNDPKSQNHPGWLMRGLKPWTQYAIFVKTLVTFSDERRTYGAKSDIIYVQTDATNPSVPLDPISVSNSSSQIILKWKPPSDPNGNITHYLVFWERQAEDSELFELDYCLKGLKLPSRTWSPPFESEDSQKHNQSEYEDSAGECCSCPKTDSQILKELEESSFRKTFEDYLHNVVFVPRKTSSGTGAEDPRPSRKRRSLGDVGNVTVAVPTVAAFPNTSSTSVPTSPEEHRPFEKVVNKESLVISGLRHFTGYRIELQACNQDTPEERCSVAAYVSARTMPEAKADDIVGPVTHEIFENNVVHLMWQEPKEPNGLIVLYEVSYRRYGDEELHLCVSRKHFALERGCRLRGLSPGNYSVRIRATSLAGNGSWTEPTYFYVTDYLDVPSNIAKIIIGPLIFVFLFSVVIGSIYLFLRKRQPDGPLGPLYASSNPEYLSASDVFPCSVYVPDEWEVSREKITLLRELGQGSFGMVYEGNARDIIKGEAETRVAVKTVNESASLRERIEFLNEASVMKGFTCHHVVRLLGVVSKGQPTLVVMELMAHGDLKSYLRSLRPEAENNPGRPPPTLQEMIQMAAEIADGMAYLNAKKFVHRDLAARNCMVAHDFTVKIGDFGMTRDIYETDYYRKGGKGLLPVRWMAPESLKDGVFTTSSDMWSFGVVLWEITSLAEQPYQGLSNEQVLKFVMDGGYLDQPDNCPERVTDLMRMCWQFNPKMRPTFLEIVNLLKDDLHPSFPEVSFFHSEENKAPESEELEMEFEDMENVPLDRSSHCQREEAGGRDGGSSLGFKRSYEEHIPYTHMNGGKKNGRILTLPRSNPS
Method: as §1

Hck = target: T4, Hck (Homo sapiens, UniProt P08631)
T4 construct: purchased Millipore Kinase Profiler
T4 sequence (P08631 whole entry, species assumed): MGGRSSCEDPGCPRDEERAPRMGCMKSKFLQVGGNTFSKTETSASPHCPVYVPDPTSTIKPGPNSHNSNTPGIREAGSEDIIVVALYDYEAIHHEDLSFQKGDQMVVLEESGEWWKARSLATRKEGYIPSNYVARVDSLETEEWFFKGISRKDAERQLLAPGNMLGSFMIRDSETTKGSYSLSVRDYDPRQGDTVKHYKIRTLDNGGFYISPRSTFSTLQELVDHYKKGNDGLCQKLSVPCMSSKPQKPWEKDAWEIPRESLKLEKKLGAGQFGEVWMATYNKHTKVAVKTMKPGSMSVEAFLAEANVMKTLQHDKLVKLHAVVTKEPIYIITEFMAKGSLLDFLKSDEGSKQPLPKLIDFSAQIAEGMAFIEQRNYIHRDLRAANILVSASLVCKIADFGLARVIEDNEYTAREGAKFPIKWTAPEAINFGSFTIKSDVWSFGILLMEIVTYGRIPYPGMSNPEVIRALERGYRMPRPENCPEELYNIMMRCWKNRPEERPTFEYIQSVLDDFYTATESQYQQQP
Method: as §1

ROCK-I = target: T5, ROCK-I (Homo sapiens, UniProt Q13464)
T5 construct: purchased Millipore (Kinase Profiler service)
Method: as §1

Axl = target: T6, Axl (Homo sapiens, UniProt P30530)
T6 construct: purchased Millipore (Kinase Profiler service)
Method: as §1

DAPK1 = target: T7, DAPK1 (Homo sapiens, UniProt P53355)
T7 construct: purchased Millipore (Kinase Profiler service)
Method: as §1

MLK1 = target: T8, MLK1 (Homo sapiens, UniProt P80192)
T8 construct: purchased Millipore Kinase Profiler
T8 sequence (P80192 whole entry, species assumed): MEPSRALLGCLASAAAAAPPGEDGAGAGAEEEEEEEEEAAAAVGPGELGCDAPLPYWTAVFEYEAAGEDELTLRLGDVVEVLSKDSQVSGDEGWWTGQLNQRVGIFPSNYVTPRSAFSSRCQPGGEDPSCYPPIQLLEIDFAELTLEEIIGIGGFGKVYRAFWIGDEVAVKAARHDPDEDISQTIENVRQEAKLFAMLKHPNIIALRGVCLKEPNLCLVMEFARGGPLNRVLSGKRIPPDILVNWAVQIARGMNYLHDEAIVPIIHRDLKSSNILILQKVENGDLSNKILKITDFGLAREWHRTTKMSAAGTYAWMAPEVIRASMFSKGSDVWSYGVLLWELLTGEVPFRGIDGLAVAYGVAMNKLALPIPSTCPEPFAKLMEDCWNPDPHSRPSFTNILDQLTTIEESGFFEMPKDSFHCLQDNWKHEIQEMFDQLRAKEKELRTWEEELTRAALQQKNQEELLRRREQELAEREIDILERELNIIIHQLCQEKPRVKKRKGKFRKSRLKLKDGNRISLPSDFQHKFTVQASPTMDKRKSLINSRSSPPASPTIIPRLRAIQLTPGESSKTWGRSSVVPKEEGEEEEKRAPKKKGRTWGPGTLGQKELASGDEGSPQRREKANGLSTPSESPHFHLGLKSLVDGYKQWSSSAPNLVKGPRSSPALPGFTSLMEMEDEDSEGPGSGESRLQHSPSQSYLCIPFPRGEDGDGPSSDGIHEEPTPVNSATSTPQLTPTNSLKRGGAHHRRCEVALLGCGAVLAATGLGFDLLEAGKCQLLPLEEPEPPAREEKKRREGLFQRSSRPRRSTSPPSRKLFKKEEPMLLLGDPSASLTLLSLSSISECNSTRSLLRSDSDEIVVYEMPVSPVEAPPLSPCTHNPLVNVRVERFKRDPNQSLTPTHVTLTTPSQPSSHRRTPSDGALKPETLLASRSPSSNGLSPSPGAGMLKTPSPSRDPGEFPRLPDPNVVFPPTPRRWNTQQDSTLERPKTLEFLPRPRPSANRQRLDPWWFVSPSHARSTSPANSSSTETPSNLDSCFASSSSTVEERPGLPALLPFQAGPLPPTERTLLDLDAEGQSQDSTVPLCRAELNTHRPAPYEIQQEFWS
Method: as §1

JAK2 = target: T9, JAK2 (Homo sapiens, UniProt O60674)
T9 construct: purchased Millipore Kinase Profiler
Method: as §1

ASK1 = target: T10, ASK1 (Homo sapiens, UniProt Q99683)
T10 construct: purchased Millipore (Kinase Profiler service)
Method: as §1

Pim-2 = target: T11, Pim-2 (Homo sapiens, UniProt Q9P1W9)
T11 construct: purchased Millipore Kinase Profiler
T11 sequence (Q9P1W9 whole entry, species assumed): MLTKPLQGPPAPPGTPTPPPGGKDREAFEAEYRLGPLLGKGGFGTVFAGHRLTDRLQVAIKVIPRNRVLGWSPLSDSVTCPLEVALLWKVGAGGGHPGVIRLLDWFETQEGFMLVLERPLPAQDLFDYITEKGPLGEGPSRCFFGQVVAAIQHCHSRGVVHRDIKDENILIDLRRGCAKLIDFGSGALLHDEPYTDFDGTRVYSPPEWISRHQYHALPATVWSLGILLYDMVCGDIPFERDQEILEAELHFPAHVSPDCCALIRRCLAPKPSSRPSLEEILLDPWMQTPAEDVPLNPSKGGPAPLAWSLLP
Method: as §1

MEK1 = target: T12, MEK1 (Homo sapiens, UniProt Q02750)
T12 construct: purchased Millipore Kinase Profiler
Method: as §1

c-RAF = target: T13, c-RAF (Homo sapiens, UniProt P04049)
T13 construct: purchased Millipore (Kinase Profiler service)
T13 sequence (P04049 whole entry, species assumed): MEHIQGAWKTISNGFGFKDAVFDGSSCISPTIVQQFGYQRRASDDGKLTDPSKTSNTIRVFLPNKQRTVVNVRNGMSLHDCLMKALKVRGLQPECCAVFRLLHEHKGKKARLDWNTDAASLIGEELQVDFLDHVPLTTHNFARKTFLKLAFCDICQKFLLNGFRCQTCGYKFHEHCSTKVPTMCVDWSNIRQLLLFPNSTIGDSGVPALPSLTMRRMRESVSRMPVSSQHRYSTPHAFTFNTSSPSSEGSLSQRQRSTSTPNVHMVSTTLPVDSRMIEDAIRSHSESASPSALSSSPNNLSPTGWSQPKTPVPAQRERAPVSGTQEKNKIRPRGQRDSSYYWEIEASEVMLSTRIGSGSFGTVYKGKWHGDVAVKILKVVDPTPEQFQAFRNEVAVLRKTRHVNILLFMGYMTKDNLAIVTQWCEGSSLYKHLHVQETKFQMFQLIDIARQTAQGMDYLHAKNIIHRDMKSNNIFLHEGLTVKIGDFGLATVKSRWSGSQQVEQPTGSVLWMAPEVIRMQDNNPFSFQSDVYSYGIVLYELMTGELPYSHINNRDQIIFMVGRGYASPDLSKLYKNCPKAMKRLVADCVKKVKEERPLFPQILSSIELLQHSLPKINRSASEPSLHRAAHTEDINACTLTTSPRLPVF
Method: as §1

CK1γ1 = target: T14, CK1γ1 (Homo sapiens, UniProt Q9HCP0)
T14 construct: purchased Millipore (Kinase Profiler service)
Method: as §1

CDK6/cyclinD3 = target: T15, CDK6/cyclinD3 (Homo sapiens, UniProt Q00534)
T15 construct: purchased Millipore (Kinase Profiler service)
Method: as §1

MSK1 = target: T16, MSK1 (Homo sapiens, UniProt O75582)
T16 construct: purchased Millipore Kinase Profiler
Method: as §1

JNK1α1 = target: T17, JNK1α1 (Homo sapiens, UniProt P45983)
T17 construct: purchased Millipore Kinase Profiler
Method: as §1

PKCδ = target: T18, PKCδ (Homo sapiens, UniProt Q05655)
T18 construct: purchased Millipore (Kinase Profiler service)
Method: as §1

Met = target: T19, Met (Homo sapiens, UniProt P08581)
T19 construct: purchased Millipore Kinase Profiler
Method: as §1

Aurora-A = target: T20, Aurora-A (Homo sapiens, UniProt O14965)
T20 construct: purchased Millipore (Kinase Profiler service)
T20 sequence (O14965 whole entry): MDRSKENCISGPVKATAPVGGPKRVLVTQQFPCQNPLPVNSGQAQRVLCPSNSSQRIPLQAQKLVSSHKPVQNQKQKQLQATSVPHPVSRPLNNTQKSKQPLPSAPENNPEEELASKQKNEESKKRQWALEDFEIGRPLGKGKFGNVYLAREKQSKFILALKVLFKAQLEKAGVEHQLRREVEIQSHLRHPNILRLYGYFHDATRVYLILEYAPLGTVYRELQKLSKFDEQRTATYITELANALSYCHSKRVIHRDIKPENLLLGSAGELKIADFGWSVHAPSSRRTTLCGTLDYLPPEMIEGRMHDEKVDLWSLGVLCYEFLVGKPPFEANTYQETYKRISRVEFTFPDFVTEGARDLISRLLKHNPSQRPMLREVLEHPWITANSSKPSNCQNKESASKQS
Method: as §1

DYRK2 = target: T21, DYRK2 (Homo sapiens, UniProt Q92630)
T21 construct: purchased Millipore (Kinase Profiler service)
T21 sequence (Q92630 whole entry, species assumed): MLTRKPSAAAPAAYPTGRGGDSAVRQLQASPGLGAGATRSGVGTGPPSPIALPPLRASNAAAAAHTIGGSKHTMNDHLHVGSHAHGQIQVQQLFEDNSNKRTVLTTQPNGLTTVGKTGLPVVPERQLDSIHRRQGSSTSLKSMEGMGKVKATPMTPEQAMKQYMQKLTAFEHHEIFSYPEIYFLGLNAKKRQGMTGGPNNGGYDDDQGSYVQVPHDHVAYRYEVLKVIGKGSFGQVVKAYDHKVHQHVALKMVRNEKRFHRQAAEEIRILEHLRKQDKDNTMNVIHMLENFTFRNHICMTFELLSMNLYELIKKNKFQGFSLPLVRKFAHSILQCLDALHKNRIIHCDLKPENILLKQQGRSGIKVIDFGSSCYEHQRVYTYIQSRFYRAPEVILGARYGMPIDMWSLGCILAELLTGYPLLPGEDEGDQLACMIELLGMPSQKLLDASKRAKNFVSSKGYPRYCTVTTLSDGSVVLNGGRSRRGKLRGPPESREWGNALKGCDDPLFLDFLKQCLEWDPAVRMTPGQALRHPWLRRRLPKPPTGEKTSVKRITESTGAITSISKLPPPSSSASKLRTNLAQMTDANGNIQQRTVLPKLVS
Method: as §1

MKK4 = target: T22, MKK4 (Mus musculus, UniProt P47809)
T22 construct: purchased Millipore Kinase Profiler
Method: as §1

EphA1 = target: T23, EphA1 (Homo sapiens, UniProt P21709)
T23 construct: purchased Millipore (Kinase Profiler service)
Method: as §1

PKA = target: T24, PKA (Homo sapiens, UniProt P17612)
T24 construct: purchased Millipore Kinase Profiler
Method: as §1

Tie2 = target: T25, Tie2 (Homo sapiens, UniProt Q02763)
T25 construct: purchased Millipore (Kinase Profiler service)
Method: as §1

AMPK = target: AMPK
Method: as §1

IRAK1 = target: T26, IRAK1 (Homo sapiens, UniProt P51617)
T26 construct: purchased Millipore Kinase Profiler
Method: as §1

Fyn = target: T27, Fyn (Homo sapiens, UniProt P06241)
T27 construct: purchased Millipore Kinase Profiler
Method: as §1

Flt3 = target: T28, Flt3 (Homo sapiens, UniProt P36888)
T28 construct: purchased Millipore Kinase Profiler
Method: as §1

mTOR = target: T29, mTOR (Homo sapiens, UniProt P42345)
T29 construct: purchased Millipore Kinase Profiler
Method: as §1

IKKα = target: T30, IKKα (Homo sapiens, UniProt O15111)
T30 construct: purchased Millipore Kinase Profiler
Method: as §1

NEK2 = target: T31, NEK2 (Homo sapiens, UniProt P51955)
T31 construct: purchased Millipore Kinase Profiler
Method: as §1

Abl = target: T32, Abl (Homo sapiens, UniProt P00519)
T32 construct: purchased Millipore (Kinase Profiler service)
Method: as §1

GSK3α = target: T33, GSK3α (Homo sapiens, UniProt P49840)
T33 construct: purchased Millipore Kinase Profiler
Method: as §1

CSK = target: T34, CSK (Homo sapiens, UniProt P41240)
T34 construct: purchased Millipore (Kinase Profiler service)
Method: as §1

MAPKAP-K2 = target: T35, MAPKAP-K2 (Homo sapiens, UniProt P49137)
T35 construct: purchased Millipore Kinase Profiler
Method: as §1

PAK2 = target: T36, PAK2 (Homo sapiens, UniProt Q13177)
T36 construct: purchased Millipore Kinase Profiler
Method: as §1

Syk = target: T37, Syk (Homo sapiens, UniProt P43405)
T37 construct: purchased Millipore (Kinase Profiler service)
Method: as §1

## CC(C)(C)c1ccc(S(=O)(=O)NCc2ccc(C(=O)Nc3cccnc3)cc2)cc1 [STF-31]
PKBα
  Kinase response to STF-31: 99
IGF-1R
  Kinase response to STF-31: 108
IR
  Kinase response to STF-31: 121
Hck
  Kinase response to STF-31: 84
ROCK-I
  Kinase response to STF-31: 74
Axl
  Kinase response to STF-31: 87
DAPK1
  Kinase response to STF-31: 92
MLK1
  Kinase response to STF-31: 97
JAK2
  Kinase response to STF-31: 113
ASK1
  Kinase response to STF-31: 129
Pim-2
  Kinase response to STF-31: 112
MEK1
  Kinase response to STF-31: 99
c-RAF
  Kinase response to STF-31: 103
CK1γ1
  Kinase response to STF-31: 85
CDK6/cyclinD3
  Kinase response to STF-31: 105
MSK1
  Kinase response to STF-31: 107
JNK1α1
  Kinase response to STF-31: 101
PKCδ
  Kinase response to STF-31: 116
Met
  Kinase response to STF-31: 105
Aurora-A
  Kinase response to STF-31: 108
DYRK2
  Kinase response to STF-31: 94
MKK4
  Kinase response to STF-31: 128
EphA1
  Kinase response to STF-31: 102
PKA
  Kinase response to STF-31: 96
Tie2
  Kinase response to STF-31: 111
AMPK
  Kinase response to STF-31: 92
IRAK1
  Kinase response to STF-31: 105
Fyn
  Kinase response to STF-31: 91
Flt3
  Kinase response to STF-31: 111
mTOR
  Kinase response to STF-31: 101
IKKα
  Kinase response to STF-31: 102
NEK2
  Kinase response to STF-31: 103
Abl
  Kinase response to STF-31: 108
GSK3α
  Kinase response to STF-31: 134
CSK
  Kinase response to STF-31: 99
MAPKAP-K2
  Kinase response to STF-31: 87
PAK2
  Kinase response to STF-31: 97
Syk
  Kinase response to STF-31: 94
